# In US12286439B2, “Inhibitors of ERK nuclear translocation” (Yeda Research and Development Co. Ltd., priority 2018, dated 2025):
# Entries after “also recorded” stand apart in the source; their conditions may differ.
# How the values were obtained:
# Type in all cases: cell-based
# [1] = tested on: RSK1 phosphorylation (cytoplasmic target of ERK1/2); test: Western blot, phosphorylated RSK1; conditions: 10 μM, 2 hours; TPA; A2185 or HeLa cells
# Protocol: (§1) CoIP assay was conducted using αERK1 (C-terminus) antibodies conjugated to protein A/G agarose beads. The precipitates were analyzed by Western blot using the indicated antibodies. Whole cell lysates (WCL) and αIgG-mouse (IgG) are shown as controls. […] Cell extracts were analyzed by Western blot with the indicated antibodies. […] The same extracts described in (B) were subjected to Western blot analysis using αpAkt Abs. The closest molecular weight marker (kDa) is shown on the right of all relevant panels.
# (§2) Bars indicate average of 2 independent experiments done in triplicate ±SE. […] Empty squares represent individual data points of proliferation. Full squares indicate average proliferation of 2 independent experiments done in triplicate ±SE. […] Cell viability (as shown in FIGS. 8A and 8B) was measured by staining with methylene blue, and data presents proliferation normalized to DMSO control. […] Cell lysates were analyzed by Western blot with the corresponding antibodies. Closest molecular marker is indicated at the right of each panel.
# (§3) Preparation of Cellular Extracts and Western Blotting:
# (§4) Cells were grown to 70% confluence and serum starved (0.1% FCS, 16 hours). After treatments, cells were rinsed twice with ice-cold PBS−/− and scraped into RIPA buffer. […]
# A2185 and A2352 cells = test: Viability assay (methylene blue), two BRAF melanoma cells; conditions: 3 μM, 72 hours, 1% FCS
# Protocol: FIGS. 10A, 10B and 10C present data from screening the 20 analogs of Compound Z2 (“C-compounds”) showing three particularly active anti-proliferative compounds. […] A2185 and A2352 cells were grown in 1% FCS containing DMSO (0.1%), EPE peptide, Compound Z56, Compound Z2 or C-compounds (10 μM), for 72 hours. Compounds were categorized according to activity: (1) active, below 40%; (2) moderate activity, below 80%; (3) not active, above 80%. […] A2185 and A2352 cells were grown in 1% FCS containing DMSO (0.1%), EPE peptide (10 μM), compounds Z56, Z2 or selected C-compounds (3 μM), for 72 hours. Empty squares/circles represent individual data points of proliferation. Full squares/circles indicate average proliferation of 2 independent experiments in triplicate±SE. Bold horizontal line defines arbitrary activity threshold of activity below 40%. FIG. 10C presents dose response curves of active C-compounds compounds. A2185 and A2352 were grown in 1% FCS media containing DMSO (0.1%), EPE peptide, Z56, Z2 (10 μM) or compounds C17, C22 and C23 (0.1-10 μM), for 72 hours. […] Cell viability was measured by staining with methylene blue. Data presented as percentage of DMSO control. Bar graphs represent average of 2 independent experiments done in triplicates ±SE.
# FIG. 13 presents a graph showing the effect of analogs of Compound C17 (“D-compounds”) on cell viability at a concentration of 10 μM. A2185 and A2352 cells were grown in 1% FCS media containing DMSO (0.1%) EPE peptide (10 μM), Compounds Z56, Z2, C17 (10 μM) as controls, and D-Compounds (10 μM), for 72 hours. Viable cells were measured by staining with methylene blue. Bar graphs represent average of 2 independent experiments done in triplicates. Data presented as percentage of DMSO proliferation ±standard error.
# FIG. 14 presents a graph showing the effect of analogs of Compound C17 (“D-compounds”) on cell viability at a concentration of 1 μM. A2185 and A2352 cells were grown in 1% FCS media containing DMSO (0.1%), EPE peptide (10 μM), Compounds Z56, Z2 and C17 (1 and 10 μM) as controls, and D-compounds (1 μM), for 72 hours. Viable cells were measured by staining with methylene blue. Bar graphs represent average of 2 independent experiments done in triplicates. Data presented as percentage of DMSO proliferation ±standard error.
# Cells were seeded at low confluence into 24, 48 or 96-well plates in complete medium. After 24 hours, medium was replaced by 1% FCS (fetal calf serum) containing appropriate treatments. Fresh medium containing the same agents was replaced every day. After 72 or 96 hours of treatment, cells were fixed with 4% formaldehyde overnight at 23° C., washed once with 0.1 M borate buffer (pH 8.5) for 10 minutes, and stained with of 1% methylene blue in 0.1 M borate buffer (pH 8.5) for 30 minutes. Excess stain was washed out with distilled water. Color was extracted by adding 0.1 M HCl (3 hours, 23° C.), and absorbance measured at 595 nm in an ELISA reader. For time course experiments, attached cells were fixed and measured at 0, 24, 48, 72 and 96 hours. For dose-response experiments, cells were treated with indicated concentrations of reagent, fixed and stained after 72 hours as above.
# The ability of the selected compounds to reduce cell viability of two BRAF melanoma cells (A2185 and A2352) was evaluated. Initially, all compounds were assayed at a relatively high concentration of 10 μM.
# [2] = tested on: Elk1 phosphorylation (nuclear target of ERK1/2); test: Western blot, phosphorylated Elk1; conditions: 10 μM, 2 hours; TPA; melanoma cell line A2185
# Protocol: as §1, §2, §3, §4
# [3] = tested on: ERK1/2 phosphorylated at the TEY activation loop motif; test: Western blot, ERK1/2 activation loop (TEY) phosphorylation; conditions: 10 μM, 2 hours; TPA; A2185 or HeLa cells
# Protocol: as §1, §2, §3, §4
# A2185 cells = test: Viability assay, dose response in A2185 cells; conditions: 0.1-10 μM, 72 hours, 1% FCS
# Protocol: Four cancer cells, A2185, A2352, HeLa and MCF7 were grown in 1% FCS containing 10 μM of either EPE peptide, or Compounds Z56, Z1, Z2 or Z3, for 72 hours. Bars indicate average of 2 independent experiments done in triplicate ±SE. FIG. 8B presents dose response curves for Compounds Z56, Z1 and Z2. A2185 cells were grown in 1% FCS containing DMSO (0.1%) EPE or Scramble (Scr) peptide (10 μM), Compounds Z56, Z1, Z2, Z3 ([…]) or no treatment (FCS 1%) for 72 hours. Empty squares represent individual data points of proliferation. Full squares indicate average proliferation of 2 independent experiments done in triplicate ±SE. Bold horizontal line indicates arbitrary threshold (40%) for what is considered an active compound. Cell viability (as shown in FIGS. 8A and 8B) was measured by staining with methylene blue, and data presents proliferation normalized to DMSO control. […] Cell lysates were analyzed by Western blot with the corresponding antibodies. […]
# Cells were seeded at low confluence into 24, 48 or 96-well plates in complete medium. […] Color was extracted by adding 0.1 M HCl (3 hours, 23° C.), and absorbance measured at 595 nm in an ELISA reader. For time course experiments, attached cells were fixed and measured at 0, 24, 48, 72 and 96 hours. […]
compound,measurement,setting,value
O=C(OC1C=CS(=O)(=O)C1)c1ccccc1 (centres unmarked) [Compound Z2],phosphorylation of the cytosolic target RSK1/2,[1],"none of Compounds Z56, Z1, Z2 or Z3 affected"
same,cell viability at lower concentration,A2185 and A2352 cells,variable activity
same,levels of phosphorylated Elk1,[2],decreased significantly
same,phosphorylation of the activation loop of ERK1/2,[3],"none of Compounds Z56, Z1, Z2 or Z3 affected"
same,"cell viability, dose response curve",A2185 cells,dose dependent manner; also recorded: somewhat less potent than Compound Z56
